From ChEMBL document CHEMBL6177981, “Bardoxolone Derivatives as Novel Pseudo-Natural Necroptosis Inhibitors by Destabilizing HSP90 Client Proteins” (J Med Chem, 2025)
Active and inactive are the calls of the source. The rule behind the calls is not given here.

Columns and labels:
[1] = system: HT-29; assay: Anti-necroptotic activity in TSZ-induced human HT-29 cells assessed as increase in cell viability preincubated with compound followed by Z-VAD-FMK, SM164 and TNFalpha addition and measured after 12 hrs by CellTiter-Lumi luminescent cell viability assay; format: functional, cell-based; conditions: dose 0.156-10 µM
[2] = system: L929; assay: Anti-necroptotic activity in TZ-induced mouse L929 cells assessed as increase in cell viability preincubated with compound followed by Z-VAD-FMK and mTNFalpha stimulation and measured after 4 hrs by CellTiter-Lumi luminescent cell viability assay; format: functional, cell-based; conditions: dose 0.625-10 µM
[3] = system: L929; assay: Anti-necroptotic activity in TZ-induced mouse L929 cells assessed as rounded shape cell morphology at 10 uM measured after 12 hrs by Live-cell super-resolution panoramic microscopic analysis; format: functional, cell-based
[4] = system: Mus musculus; assay: (§1) Anti-necroptotic activity in TNFalpha/Z-VAD-FMK induced SIRS male C57BL/6J mouse model assessed as reduction in IL6 in intestine at 5 to 10 mg/kg, po pre-administered with compound via gavage for 2 hrs followed by […] of Z-VAD-FMK stimulation for 15 mins with subsequent TNF-alpha stimulation for 1 hrs and re-current […] of Z-VAD-FMK stimulation and measured after 8 hrs post SIRS induction by ELISA; format: functional, organism-based; conditions: dose 5-10 mg/kg, time 10.0 hrs
[5] = system: Mus musculus; assay: as §1, with “serum” for “intestine at 5 to 10 mg/kg, po”, “pre-administered orally” for “pre-administered”; format: functional, organism-based; conditions: dose 2.5-10 mg/kg, route po, time 10.0 hrs
[6] = system: Mus musculus; assay: as §1, with “IL-1beta” for “IL6”; format: functional, organism-based; conditions: dose 5-10 mg/kg, time 10.0 hrs
[7] = system: Mus musculus; assay: as §1, with “heart” for “intestine”; format: functional, organism-based; conditions: dose 5-10 mg/kg, time 10.0 hrs
[8] = Cmax in Sprague-Dawley rat at 2 mg/kg, iv measured after 24 hrs by LC-MS/MS analysis; format: ADME, organism-based; conditions: in vivo
[9] = Cmax in Sprague-Dawley rat at 10 mg/kg, IG measured after 24 hrs by LC-MS/MS analysis; format: ADME, organism-based; conditions: in vivo, po
[10] = Acute toxicity in male C57BL/6J mouse assessed as effect on creatinine level at 2 g/Kg, IG measured after 72 hrs; conditions: in vivo, po, 2000 mg/kg
[11] = Acute toxicity in male C57BL/6J mouse assessed as inflammatory cell infiltration in heart at 2 g/Kg, IG measured after 72 hrs by H and E staining based analysis; format: tissue-based; conditions: in vivo, po, 2000 mg/kg
[12] = Acute toxicity in male C57BL/6J mouse assessed as inflammatory cell infiltration in liver at 2 g/Kg, IG measured after 72 hrs by H and E staining based analysis; format: tissue-based; conditions: in vivo, po, 2000 mg/kg
[13] = Acute toxicity in male C57BL/6J mouse assessed as hemorrhage in spleen at 2 g/Kg, IG measured after 72 hrs by H and E staining based analysis; format: tissue-based; conditions: in vivo, po, 2000 mg/kg
[14] = Acute toxicity in male C57BL/6J mouse assessed as structural changes in brain at 2 g/Kg, IG measured after 72 hrs by H and E staining based analysis; format: tissue-based; conditions: in vivo, po, 2000 mg/kg
[15] = target: Heat shock protein HSP90 (Homo sapiens) (UniProt P07900+P08238); assay: Inhibition of HSP90 in TSZ-induced human HT-29 cells assessed as reduction in EGFR protein level at 10 uM preincubated with compound followed by Z-VAD-FMK, SM164 and TNFalpha stimulation and measured after 6 hrs by Western blot analysis; format: cell-based
[16] = target: Receptor-interacting serine/threonine-protein kinase 3 (Homo sapiens) (UniProt Q9Y572); assay: Inhibition of RIPK3 phosphorylation at S227 residue in TSZ-induced human HT-29 cells at 10 uM preincubated with compound followed by Z-VAD-FMK, SM164 and TNFalpha stimulation and measured after 6 hrs by Western blot analysis; format: cell-based
Receptor-interacting serine/threonine-protein kinase 3 (Homo sapiens), sequence (Q9Y572 whole entry, looked up, the tested form may be a part): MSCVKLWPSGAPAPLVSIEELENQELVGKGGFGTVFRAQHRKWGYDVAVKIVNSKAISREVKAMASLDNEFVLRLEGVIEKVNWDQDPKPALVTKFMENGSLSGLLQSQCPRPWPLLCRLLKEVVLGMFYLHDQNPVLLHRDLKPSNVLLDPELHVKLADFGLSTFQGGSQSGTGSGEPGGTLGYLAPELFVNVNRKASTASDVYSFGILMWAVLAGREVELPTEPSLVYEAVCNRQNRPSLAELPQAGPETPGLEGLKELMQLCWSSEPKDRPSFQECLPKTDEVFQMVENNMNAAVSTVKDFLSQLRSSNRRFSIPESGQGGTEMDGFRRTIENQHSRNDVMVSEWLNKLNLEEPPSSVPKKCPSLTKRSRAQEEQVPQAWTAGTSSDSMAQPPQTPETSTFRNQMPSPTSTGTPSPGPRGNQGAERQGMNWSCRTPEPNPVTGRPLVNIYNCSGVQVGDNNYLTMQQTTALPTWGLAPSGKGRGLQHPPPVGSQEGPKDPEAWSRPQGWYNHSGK

[17] = target: T1, Mixed lineage kinase domain-like protein (Homo sapiens) (UniProt Q8NB16); assay: Inhibition of MLKL phosphorylation at S358 residue in TSZ-induced human HT-29 cells at 10 uM preincubated with compound followed by Z-VAD-FMK, SM164 and TNFalpha stimulation and measured after 6 hrs by Western blot analysis; format: cell-based
T1 sequence (whole entry): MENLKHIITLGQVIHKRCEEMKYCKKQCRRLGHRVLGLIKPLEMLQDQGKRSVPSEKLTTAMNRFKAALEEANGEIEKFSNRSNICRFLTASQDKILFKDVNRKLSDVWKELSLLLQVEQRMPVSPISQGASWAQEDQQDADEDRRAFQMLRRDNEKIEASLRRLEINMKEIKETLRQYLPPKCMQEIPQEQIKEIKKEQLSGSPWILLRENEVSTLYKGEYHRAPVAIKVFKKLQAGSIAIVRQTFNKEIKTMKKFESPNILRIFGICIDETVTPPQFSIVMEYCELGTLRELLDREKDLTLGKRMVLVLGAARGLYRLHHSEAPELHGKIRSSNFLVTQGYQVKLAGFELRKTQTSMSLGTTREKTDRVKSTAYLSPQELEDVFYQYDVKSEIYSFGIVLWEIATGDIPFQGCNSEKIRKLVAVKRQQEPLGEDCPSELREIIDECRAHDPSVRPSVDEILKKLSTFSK

[18] = system: HT-29; assay: Downregulation of total RIPK3 protein level in TSZ-induced human HT-29 cells at 10 uM preincubated with compound followed by Z-VAD-FMK, SM164 and TNFalpha stimulation and measured after 6 hrs by Western blot analysis; format: functional, cell-based
[19] = Inhibition of TSZ-mediated necrosome formation in human HT-29 cells at 10 uM preincubated with compound followed by Z-VAD-FMK, SM164 and TNFalpha stimulation and measured after 6 hrs by co-immunoprecipitation based Western blot analysis relative to control; format: functional
[20] = system: HT-29; assay: Downregulation of RIPK1 protein level in human HT-29 cells incubated for 9 hrs by Western blot analysis; format: functional, cell-based; conditions: dose 0.75-6 µM
[21] = system: HT-29; assay: Downregulation of RIPK3 protein level in human HT-29 cells incubated for 9 hrs by Western blot analysis; format: functional, cell-based; conditions: dose 0.75-6 µM
[22] = system: HT-29; assay: Downregulation of MLKL protein level in human HT-29 cells incubated for 9 hrs by Western blot analysis; format: functional, cell-based; conditions: dose 0.75-6 µM
[23] = system: HT-29; assay: Downregulation of RIPK3 protein level in human HT-29 cells at 3 to 6 uM incubated for 9 hrs by Western blot analysis; format: functional, cell-based; conditions: dose 3-6 µM
[24] = system: HT-29; assay: Downregulation of MLKL protein level in human HT-29 cells at 6 uM preincubated with MLN4924 for 2 hrs followed by compound addition and measured after 9 hrs by Western blot analysis; format: functional, cell-based
[25] = system: HeLa; assay: Upregulation of HSP70 expression in RIPK3-deficient human HeLa cells at 1.5 uM incubated for 9 hrs by Western blot analysis; format: functional, cell-based
[26] = system: HeLa; assay: Inhibition of MLKL protein expression in RIPK3-deficient human HeLa cells at 6 uM preincubated with NH4Cl for 2 hrs followed by compound addition and measured after 9 hrs by Western blot analysis; format: functional, cell-based
[27] = system: HT-29; assay: Effect on MLKL protein level in human HT-29 cell precipitate at 6 uM measured after 9 hrs by Western blot analysis; format: functional, cell-based

With `Cn1ccc(-c2ccc(NC(=O)[C@]34CCC(C)(C)C[C@H]3[C@H]3C(=O)C=C5[C@@]6(C)C=C(C#N)C(=O)C(C)(C)[C@@H]6CC[C@@]5(C)[C@]3(C)CC4)cc2)n1` the Activity [1] was “Dose-dependent-effect”, the Activity [2] was “Dose-dependent-effect” and the Activity [3] was “Active”. For the same compound, the Activity [4] was “Active”, the Activity [5] was “Dose-dependent-effect” and the Activity [6] was “Active”. For the same compound, the Activity [7] was “Active”, the Cmax [8] was 1040 ng/mL and the Cmax [9] was 65.1 ng/mL. The Activity [10] was “Non-toxic”, the Activity [11] was “Non-toxic” and the Activity [12] was “Non-toxic”. For the same compound, the Activity [13] was “Non-toxic”, the Activity [14] was “Non-toxic” and the inhibition [15] was “Active”. The inhibition [16] was “Active”, the inhibition [17] was “Active” and the Activity [18] was “Active”. The inhibition at 10 µM [19] was 100%, the Activity [20] was “Dose-dependent-effect” and the Activity [21] was “Dose-dependent-effect”. For the same compound, the Activity [22] was “Dose-dependent-effect”, the Activity [23] was “Active; Significant Effect Observed” and the Activity [24] was “Active”. For the same compound, the Activity [25] was “Active”, the inhibition [26] was “Active” and the Activity [27] was “inactive”.
